# From publication PMC10866072, “Design, synthesis, molecular modelling and biological evaluation of novel 6-amino-5-cyano-2-thiopyrimidine derivatives as potent anticancer agents against leukemia and apoptotic inducers” (Journal of Enzyme Inhibition and Medicinal Chemistry, 2024)
# Experiments:
# [1] = tested on: IGROV1; format: cell-based; details: Homo sapiens, IGROV-1, one dose 10^-5 M, 48 h, read-out: % growth
# [2] = tested on: COLO 205; format: cell-based; details: Homo sapiens, one dose 10^-5 M, 48 h
# [3] = tested on: HT29; format: cell-based; details: Homo sapiens, HT-29, one dose 10^-5 M, 48 h
# [4] = tested on: T-47D; format: cell-based; details: Homo sapiens, T47D, one dose 10^-5 M, 48 h, read-out: % growth
# [5] = tested on: ACHN; format: cell-based; details: Homo sapiens, one dose 10^-5 M, 48 h
# [6] = tested on: NCI-H522; format: cell-based; details: Homo sapiens, one dose 10^-5 M, 48 h
# [7] = tested on: SW-620; format: cell-based; details: Homo sapiens, one dose 10^-5 M, 48 h
# [8] = tested on: OVCAR-5; format: cell-based; details: Homo sapiens, one dose 10^-5 M, 48 h
# [9] = tested on: SK-OV-3; format: cell-based; details: Homo sapiens, one dose 10^-5 M, 48 h
# [10] = tested on: UO-31; format: cell-based; details: Homo sapiens, UO-31, 48 h, one dose 10^-5 M, 48 h
# [11] = tested on: CAKI-1; format: cell-based; details: Homo sapiens, CAKI-1, 48 h, one dose 10^-5 M, 48 h
# [12] = tested on: full NCI 60 cell lines panel; details: for activity at 10 µM: Homo sapiens, 60 cell, 48 h, read-out: Mean % growth; for activity on all 60 cancer cell lines tested (in words): one dose
# [13] = tested on: 786-0; format: cell-based; details: Homo sapiens, one dose 10^-5 M, 48 h
# [14] = tested on: SF-268; format: cell-based; details: Homo sapiens, one dose 10^-5 M, 48 h, read-out: % growth
# [15] = tested on: SF-539; format: cell-based; details: Homo sapiens, one dose 10^-5 M, 48 h
# [16] = tested on: LOX IMVI; format: cell-based; details: Homo sapiens, one dose 10^-5 M, 48 h, read-out: % growth
# [17] = tested on: BT-549; format: cell-based; details: Homo sapiens, one dose 10^-5 M, 48 h
# [18] = tested on: NCI/ADR-RES; format: cell-based; details: Homo sapiens, one dose 10^-5 M, 48 h
# [19] = tested on: HCT-116; format: cell-based; details: Homo sapiens, one dose 10^-5 M, 48 h, read-out: % growth
# [20] = tested on: HCC-2998; format: cell-based; details: Homo sapiens, one dose 10^-5 M, 48 h
# [21] = tested on: SNB-75; format: cell-based; details: Homo sapiens, one dose 10^-5 M, 48 h
# [22] = tested on: EKVX; format: cell-based; details: Homo sapiens, one dose 10^-5 M, 48 h
# [23] = tested on: UACC-62; format: cell-based; details: Homo sapiens, one dose 10^-5 M, 48 h
# [24] = tested on: UACC-257; format: cell-based; details: Homo sapiens, one dose 10^-5 M, 48 h
# [25] = tested on: MDA-MB-435; format: cell-based; details: Homo sapiens, one dose 10^-5 M, 48 h, read-out: % growth
# [26] = tested on: SF-295; format: cell-based; details: Homo sapiens, one dose 10^-5 M, 48 h
# [27] = tested on: MOLT-4; format: cell-based; details: Homo sapiens, one dose 10^-5 M, 48 h, read-out: % growth
# [28] = tested on: HS 578T; format: cell-based; details: Homo sapiens; one dose 10^-5 M, 48 h; HS 578T; read-out: % growth
# [29] = tested on: M14; format: cell-based; details: Homo sapiens, one dose 10^-5 M, 48 h
# [30] = tested on: HL-60(TB); format: cell-based; details: Homo sapiens, one dose 10^-5 M, 48 h
# [31] = tested on: MCF7; format: cell-based; details: Homo sapiens, one dose 10^-5 M, 48 h, read-out: % growth
# [32] = tested on: SK-MEL-5; format: cell-based; details: Homo sapiens, one dose 10^-5 M, 48 h, read-out: % growth
# [33] = tested on: CCRF-CEM; format: cell-based; details: Homo sapiens, one dose 10^-5 M, 48 h
# [34] = tested on: RPMI-8226; format: cell-based; details: Homo sapiens, one dose 10^-5 M, 48 h
# [35] = tested on: SN12C; format: cell-based, human; details: Homo sapiens, one dose 10^-5 M, 48 h
# [36] = tested on: NCI-H226; format: cell-based; details: Homo sapiens, one dose 10^-5 M, 48 h
# [37] = tested on: TK-10; format: cell-based; details: Homo sapiens, one dose 10^-5 M, 48 h
# [38] = tested on: MDA-MB-468; format: cell-based; details: Homo sapiens, one dose 10^-5 M, 48 h
# [39] = tested on: A498; format: cell-based; details: Homo sapiens, one dose 10^-5 M, 48 h
# [40] = tested on: MDA-MB-231/ATCC; format: cell-based; details: Homo sapiens, one dose 10^-5 M, 48 h
# [41] = tested on: K-562; format: cell-based; details: Homo sapiens, K562, one dose 10^-5 M, 48 h
# [42] = tested on: OVCAR-4; format: cell-based; details: Homo sapiens, one dose 10^-5 M, 48 h
# [43] = tested on: U251; format: cell-based; details: Homo sapiens, U-251, one dose 10^-5 M, 48 h
# [44] = tested on: OVCAR-8; format: cell-based; details: Homo sapiens, one dose 10^-5 M, 48 h
# [45] = tested on: OVCAR-3; format: cell-based; details: Homo sapiens, one dose 10^-5 M, 48 h
# [46] = tested on: MALME-3M; format: cell-based; details: Homo sapiens, one dose 10^-5 M, 48 h
# [47] = tested on: HOP-62; format: cell-based; details: Homo sapiens, one dose 10^-5 M, 48 h
# [48] = tested on: DU-145; format: cell-based; details: Homo sapiens, one dose 10^-5 M, 48 h
# [49] = tested on: NCI-H23; format: cell-based; details: Homo sapiens, one dose 10^-5 M, 48 h, read-out: % growth
# [50] = tested on: SR; format: cell-based; details: Homo sapiens, one dose 10^-5 M, 48 h
# [51] = tested on: SNB-19; format: cell-based; details: Homo sapiens, one dose 10^-5 M, 48 h, read-out: % growth
# [52] = tested on: NCI-H460; format: cell-based; details: Homo sapiens, one dose 10^-5 M, 48 h, read-out: % growth
# [53] = tested on: SK-MEL-2; format: cell-based; details: Homo sapiens, one dose 10^-5 M, 48 h
# [54] = tested on: HCT-15; format: cell-based; details: Homo sapiens, one dose 10^-5 M, 48 h, read-out: % growth
# [55] = tested on: PC-3; format: cell-based; details: Homo sapiens, one dose 10^-5 M, 48 h
# [56] = tested on: KM12; format: cell-based; details: Homo sapiens, one dose 10^-5 M, 48 h
# [57] = tested on: A549/ATCC; format: cell-based; details: Homo sapiens, one dose 10^-5 M, 48 h
# [58] = tested on: SK-MEL-28; format: cell-based; details: Homo sapiens, one dose 10^-5 M, 48 h
# [59] = tested on: HOP-92; format: cell-based; details: Homo sapiens, one dose 10^-5 M, 48 h
compound,measurement,setting,value
"COc1ccc(/C=N\NC(=N)c2c(N)nc(S)nc2-c2ccc(N(C)C)cc2)cc1 [Compound 4d, 4-amino-N'-[(1Z)-(4-methoxyphenyl)methylene]-6-[4-(dimethylamino)phenyl]-2-mercapto pyrimidine-5-carboximidohydrazide]",activity at 10 µM,[1],104%
same,% growth at 10 µM,[2],118%
same,% growth at 10 µM,[3],100%
same,activity at 10 µM,[4],98.7%
same,% growth at 10 µM,[5],103%
same,% growth at 10 µM,[6],93.3%
same,% growth at 10 µM,[7],103%
same,percent cell growth at 10 µM,[8],103%
same,% growth at 10 µM,[9],110%
same,% cell growth at 10 µM,[10],72%
same,% growth at 10 µM,[11],97.5%
same,activity at 10 µM,[12],101%
same,activity on all 60 cancer cell lines tested (in words),[12],weak activity
same,% growth at 10 µM,[13],98.3%
same,activity at 10 µM,[14],97%
same,% growth at 10 µM,[15],108%
same,activity at 10 µM,[16],101%
same,% cell growth at 10 µM,[17],102%
same,cell growth percent at 10 µM,[18],107%
same,activity at 10 µM,[19],108%
same,% growth at 10 µM,[20],108%
same,% growth at 10 µM,[21],101%
same,% cell growth at 10 µM,[22],99%
same,% growth at 10 µM,[23],94.3%
same,percent cell growth at 10 µM,[24],106%
same,activity at 10 µM,[25],96.7%
same,% cell growth at 10 µM,[26],104%
same,activity at 10 µM,[27],101%
same,activity at 10 µM,[28],112%
same,% growth at 10 µM,[29],96.1%
same,% growth at 10 µM,[30],93.8%
same,activity at 10 µM,[31],95.2%
same,activity at 10 µM,[32],102%
same,% cell growth at 10 µM,[33],78.9%
same,% growth at 10 µM,[34],86.5%
same,% growth at 10 µM,[35],100%
same,% growth at 10 µM,[36],103%
same,% cell growth at 10 µM,[37],103%
same,percent cell growth at 10 µM,[38],114%
same,% growth at 10 µM,[39],119%
same,% growth at 10 µM,[40],103%
same,% growth at 10 µM,[41],101%
same,% growth at 10 µM,[42],96.8%
same,% growth at 10 µM,[43],106%
same,% growth of cells at 10 µM,[44],104%
same,% growth at 10 µM,[45],105%
same,% growth at 10 µM,[46],98.4%
same,% growth at 10 µM,[47],106%
same,% growth at 10 µM,[48],106%
same,activity at 10 µM,[49],103%
same,percent cell growth at 10 µM,[50],102%
same,activity at 10 µM,[51],101%
same,activity at 10 µM,[52],106%
same,% growth at 10 µM,[53],109%
same,activity at 10 µM,[54],98.2%
same,percent cell growth at 10 µM,[55],88.5%
same,% growth at 10 µM,[56],93.2%
same,% growth at 10 µM,[57],103%
same,% cell growth at 10 µM,[58],105%
same,% growth at 10 µM,[59],109%
"CN(C)c1ccc(-c2nc(S)nc(N)c2C(=N)NN=Cc2ccccc2)cc1 [Compound 4a, 4-Amino-6-[4-(dimethylamino)phenyl]-2-mercapto-N'-[phenylmethylene] pyrimidine-5-carboximidohydrazide]",activity at 10 µM,[1],111%
same,% growth at 10 µM,[2],140%
same,% growth at 10 µM,[3],101%
same,activity at 10 µM,[4],105%
same,% growth at 10 µM,[5],101%
same,% growth at 10 µM,[6],99.4%
same,% growth at 10 µM,[7],108%
same,percent cell growth at 10 µM,[8],111%
same,% growth at 10 µM,[9],118%
same,% cell growth at 10 µM,[10],75%
same,% growth at 10 µM,[11],99%
same,activity at 10 µM,[12],104%
same,activity on all 60 cancer cell lines tested (in words),[12],weak activity
same,% growth at 10 µM,[13],102%
same,activity at 10 µM,[14],104%
same,% growth at 10 µM,[15],106%
same,activity at 10 µM,[16],98.3%
same,% cell growth at 10 µM,[17],103%
same,cell growth percent at 10 µM,[18],104%
same,activity at 10 µM,[19],110%
same,% growth at 10 µM,[20],113%
same,% growth at 10 µM,[21],101%
same,% cell growth at 10 µM,[22],96.3%
same,% growth at 10 µM,[23],97.9%
same,percent cell growth at 10 µM,[24],106%
same,activity at 10 µM,[25],99.4%
same,% cell growth at 10 µM,[26],104%
same,activity at 10 µM,[27],106%
same,activity at 10 µM,[28],113%
same,% growth at 10 µM,[29],106%
same,% growth at 10 µM,[30],94.7%
same,activity at 10 µM,[31],93.1%
same,activity at 10 µM,[32],103%
same,% cell growth at 10 µM,[33],82%
same,% growth at 10 µM,[34],89.8%
same,% growth at 10 µM,[35],103%
same,% growth at 10 µM,[36],98.6%
same,% cell growth at 10 µM,[37],105%
same,percent cell growth at 10 µM,[38],117%
same,% growth at 10 µM,[39],107%
same,% growth at 10 µM,[40],109%
same,% growth at 10 µM,[41],107%
same,% growth at 10 µM,[42],101%
same,% growth at 10 µM,[43],111%
same,% growth of cells at 10 µM,[44],115%
same,% growth at 10 µM,[45],102%
same,% growth at 10 µM,[46],105%
same,% growth at 10 µM,[47],109%
same,% growth at 10 µM,[48],104%
same,activity at 10 µM,[49],104%
same,percent cell growth at 10 µM,[50],104%
same,activity at 10 µM,[51],102%
same,activity at 10 µM,[52],104%
same,% growth at 10 µM,[53],108%
same,activity at 10 µM,[54],99.9%
same,percent cell growth at 10 µM,[55],85.1%
same,% growth at 10 µM,[56],107%
same,% growth at 10 µM,[57],103%
same,% cell growth at 10 µM,[58],105%
same,% growth at 10 µM,[59],114%
